Measured values from PMC7616177, “From structure to clinic: Design of a muscarinic M1 receptor agonist with the potential to treat Alzheimer’s disease” (Cell, 2021).
Read-outs that look alike come from different tables or passages of the source.

Tests used:
[1] = system: Wistar rats; assay: Open field exploratory behaviour; type: in vivo; conditions: rat
Experimental: During the rat passive avoidance testing, open field exploratory behavior was measured on study days 4 and 5 (acclimatisation and handling), 6 (training) and 7 (recall). The open field apparatus consisted of black-painted Perspex 620 mm^2 with walls 300 mm high. Locomotor activity, measured as the distance traveled in a 300 s period, as well as incidences of rearing and grooming were recorded, using Ethovision XT tracking software (Noldus UK).

[2] = target: T1, human M1 receptor (Homo sapiens, UniProt P11229); assay: [3H]-NMS equilibrium radioligand binding, M1
T1 construct: expressed in transfected cells
T1 sequence (P11229 1-460): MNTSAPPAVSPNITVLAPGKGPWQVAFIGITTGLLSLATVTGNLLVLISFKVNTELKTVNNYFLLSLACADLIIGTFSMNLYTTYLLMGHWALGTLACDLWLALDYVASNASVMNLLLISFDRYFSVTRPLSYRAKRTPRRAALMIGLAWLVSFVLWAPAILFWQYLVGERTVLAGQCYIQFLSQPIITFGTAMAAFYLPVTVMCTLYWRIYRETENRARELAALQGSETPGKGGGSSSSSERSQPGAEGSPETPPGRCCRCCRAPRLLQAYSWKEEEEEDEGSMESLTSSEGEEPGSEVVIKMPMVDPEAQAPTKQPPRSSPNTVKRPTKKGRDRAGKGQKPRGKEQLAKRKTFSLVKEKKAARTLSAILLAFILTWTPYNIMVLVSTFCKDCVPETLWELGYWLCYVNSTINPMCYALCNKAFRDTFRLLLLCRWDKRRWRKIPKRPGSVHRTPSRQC
Experimental: (§1) Non-specific binding (NSB) was determined in the presence of 1 μM atropine). Reactions were terminated by rapid filtration onto GF/B filter paper (Whatman, Maidstone, UK) and three washes with 3 mL ice-cold 0.9% NaCl using a Brandel harvester (M-24TI; Brandel, Fort Lauderdale, FL). Membrane bound radioactivity was determined by liquid scintillation (Ultima Gold; PerkinElmer) counting.
(§2) Data was analyzed using PRISM (GraphPad). For saturation binding, non-specific and total binding data were analyzed to a one site binding model. DPM was converted to fmol/mg to compare across constructs. […] […] The Cheng Prusoff equation was used to estimate pKi ([Cheng and Prusoff, 1973]).

[3] = system: CA1 neurons; assay: In vivo electrophysiological recording of CA1 neurons in anaesthetised rats; set-up: species or system rat
[4] = target: T2, M3-receptor (Homo sapiens, UniProt P20309); assay: [3H]-NMS equilibrium radioligand binding, M3
T2 construct: expressed in transfected cells
T2 sequence (P20309 whole entry): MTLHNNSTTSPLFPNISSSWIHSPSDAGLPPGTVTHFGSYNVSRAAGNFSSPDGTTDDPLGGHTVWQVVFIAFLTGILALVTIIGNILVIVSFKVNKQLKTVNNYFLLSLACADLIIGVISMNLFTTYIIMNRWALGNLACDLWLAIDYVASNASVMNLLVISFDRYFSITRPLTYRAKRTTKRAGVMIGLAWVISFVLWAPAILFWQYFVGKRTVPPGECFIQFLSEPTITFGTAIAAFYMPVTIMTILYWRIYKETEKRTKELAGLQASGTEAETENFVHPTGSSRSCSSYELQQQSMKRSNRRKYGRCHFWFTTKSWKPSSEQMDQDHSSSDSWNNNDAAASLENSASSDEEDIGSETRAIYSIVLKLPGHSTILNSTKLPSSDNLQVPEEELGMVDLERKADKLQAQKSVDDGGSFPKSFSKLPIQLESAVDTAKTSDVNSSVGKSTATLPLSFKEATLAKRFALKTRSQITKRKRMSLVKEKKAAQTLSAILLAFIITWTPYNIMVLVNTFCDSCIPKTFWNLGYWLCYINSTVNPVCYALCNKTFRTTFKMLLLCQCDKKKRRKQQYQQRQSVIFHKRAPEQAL
Experimental: as §1, §2

[5] = system: dogs; assay: GLP cardiovascular safety pharmacology telemetry in dogs
[6] = First-time-in-human single ascending dose safety; type: in vivo; conditions: plasma, oral, 175 mg; human SAD; read-out: Cmax at which cholinergic side effects were recorded
Description: (§3) HTL9936 was progressed into a randomized, double blind, placebo controlled, first time-in-human (FTIH) ascending single and multiple oral dose study in healthy young adult male volunteers and healthy elderly male and female volunteers. (ClinicalTrials.gov Identifier: NCT02291783).
(§4) The required amount of sterile solution was subsequently injected into the infusion bag containing sodium chloride 0.9%w/v infusion fluid to provide the required dose for IV administration.

[7] = system: healthy volunteers; assay: First-time-in-human single ascending dose safety; type: in vivo
Description: as §3, §4

[8] = system: non-human primates; assay: Safety clinical signs, non-human primates; type: in vivo
[9] = system: CA1 pyramidal cells; assay: Electrophysiological recordings in rat hippocampal slices; type: cell-based; conditions: read-out: Spontaneous firing rate of CA1 pyramidal cells EC50
[10] = target: T1, human M1 receptor; assay: M1-receptor functional agonist assays (pERK1/2 and calcium mobilisation) for hits and SAR; type: cell-based
[11] = Rat CNS distribution and estimated unbound brain exposure; type: in vivo
[12] = Dog plasma and CSF exposure after subcutaneous dosing; type: in vivo; conditions: sc; for concentration at 4 h: CSF, aged beagle, 4 h post-dose, read-out: Measured Ccsf concentration
[13] = system: Wistar rats; assay: Scopolamine-induced amnesia in passive avoidance; type: in vivo, rat
Experimental: Male adult Wistar rats (Harlan, UK; approximately 11 weeks of age) were acclimatised to the experimental rooms for three days (study days 1-3) and handled for a further two days (study days 4 and 5) prior to the experiment.
Donepezil (0.01 and 0.1 mg/kg) was administered via intraperitoneal injection (in saline) 60 min prior to training. Rats were trained in a single-trial, step-through, light-dark passive avoidance paradigm. The training apparatus consisted of a chamber 300 mm in length, 260 mm wide, and 270 mm in height. The front and top were transparent, allowing the experimenter to observe the behavior of the animal inside the apparatus. The chamber was divided into two compartments, separated by a central shutter that contained a small opening (50 mm wide and 75 mm high) set close to the front of the chamber. The smaller of the compartments measured 90 mm in width and contained a low-light (~200 lux) illumination source. The larger compartment measured 210 mm in width and was not illuminated. The floor of this dark compartment consisted of a grid of 16 horizontal stainless-steel bars that were 5 mm in diameter and spaced 12.5 mm apart. A current generator supplied 0.75 mA to the grid floor, which was scrambled once every 0.5 s across the 16 bars.
Animals were placed facing the rear of the light compartment of the apparatus, immediately after which, spontaneous behavior was assessed. The timer was started once the animal completely turned to face the front of the chamber. Latency to enter the dark chamber was recorded, and having completely entered the dark compartment foot shock was administered to the animal, which immediately returned to the light compartment. Animals were then returned to their home cages. Between each training session, both compartments of the chamber were cleaned to remove any confounding olfactory cues. Vehicle (saline) or scopolamine (1 mg/kg) was administered to rats 6 hours after training. Recall of the inhibitory stimulus was evaluated 24 hour post-training on study day 7, by returning the animal into the light chamber and recording their latency to enter the dark chamber, a criterion time of 600 s was employed. Observation of the animals was made by overhead video camera linked to a monitor behind a screened area. Animal treatment was blinded to the observer.

[14] = target: T1, human M1 receptor; assay: pERK1/2 assay in CHO cells overexpressing human M1-receptor; type: cell-based

CCOC(=O)N1CCC[C@H](N2CCC(C(=O)NC3(C)CCC3)CC2)CC1 [HTL9936, ethyl (S)-4-(4-((1-methylcyclobutyl)carbamoyl)piperidin-1-yl)azepane-1-carboxylate]
Open-field exploratory behavior [1]: no difference in effect | Ki [2]: 20000 nM | In vivo firing rate of CA1 neurons vs vehicle ([3]; 10 mg/kg i.v., rats): significant increase in the in vivo firing rate of CA1 neurons | In vivo neuronal firing rate ([3]; adult rats, 1 and 10 mg/kg, reversed by scopolamine i.v.): concentration-dependent increase in neuronal firing rate | Binding to the M3-receptor [4]: no detectable binding | Time for hemodynamic changes to return to control levels after end of i.v. infusion ([5]; dogs): ≤ 30 min | Blood pressure and heart rate ([5]; telemetered dogs, i.v. infusion): dose-dependent profile of HTL9936 effects on blood pressure, but not heart rate | Cmax [6]: 242 ng/mL | Subjects with mild cholinergic responses (salivation, sweating, blood pressure/heart rate changes) ([7]; human SAD, 175 mg cohort): 3/5 | Serious adverse events leading to withdrawal ([7]; human SAD, 1−100mg oral): no serious adverse events | Margin of 242 ng/mL over plasma minimal effective concentration in aged beagle DNMP ([7]; human vs dog 58 ng/mL): about 5 × | Estimated unbound brain exposure at plasma Cmax of 242 ng/mL ([7]; human, from CSF to plasma ratios 1 to 3 h): 72 to 259 nM | Cu,pl without cholinergic clinical signs [8]: 991 nM | Plasma exposure without cholinergic clinical signs [8]: ≤ 557 ng/mL | EC50 [9]: 1600 nM | EC50 [10]: 32 nM | Distribution into the CNS ([11]; 1 mg/kg intravenous and 10 mg/kg oral): significant distribution into the CNS | Estimated unbound drug in the brain Cu,br ([11]; 3 mg/kg p.o.): 79 nM | Estimated unbound drug in the brain Cu,br ([11]; 10 mg/kg p.o.): 262 nM | Estimated unbound drug in the brain Cu,br ([11]; 30 mg/kg p.o.): 786 nM | concentration at 4 h ([12]; 0.3 mg/kg s.c.): 13 nM | concentration at 4 h ([12]; 1 mg/kg s.c.): 48 nM | concentration at 4 h ([12]; 2 mg/kg s.c.): 128 nM | Cmax ([12]; plasma, aged beagle DNMP study, 0.3 mg/kg subcutaneous, read-out: Cmax plasma exposure at minimal effective dose): 58 ng/mL | Maximal response compared with donepezil 0.1 mg/kg ([13]; rat passive avoidance): equivalent to that obtained using the clinically approved acetylcholinesterase inhibitor donepezil | Response alone ([13]; rat passive avoidance, HTL9936 3 mg/kg): no response alone | Effect on scopolamine-induced amnesia ([13]; rat, 3, 10 or 30 mg/kg p.o., scopolamine 1 mg/kg i.p.): reversed in a dose-dependent manner | EC50 [14]: 32 nM
